Laboratory results reported in ChEMBL document CHEMBL1201861, “Genomics of Drug Sensitity in Cancer screening data, Wellcome Trust Sanger Institute”.

Legend:
Experiment in all cases: cells
COLO-829 = format: functional, cell-based, Homo sapiens; conditions: Homo sapiens, COLO-829
Description: SANGER: Inhibition of human COLO-829 cell growth in a cell viability assay.

PC-3 = format: functional, cell-based, Homo sapiens; conditions: Homo sapiens, PC-3
Description: SANGER: Inhibition of human PC-3 cell growth in a cell viability assay.

OVCAR-5 = format: functional, cell-based, Homo sapiens; conditions: Homo sapiens, OVCAR-5
Description: SANGER: Inhibition of human OVCAR-5 cell growth in a cell viability assay.

HD-MY-Z = format: functional, cell-based, Homo sapiens; conditions: Homo sapiens, HD-MY-Z
Description: SANGER: Inhibition of human HD-MY-Z cell growth in a cell viability assay.

NCI-N87 = format: functional, cell-based, Homo sapiens; conditions: Homo sapiens, NCI-N87
Description: SANGER: Inhibition of human NCI-N87 cell growth in a cell viability assay.

BB30-HNC = format: functional, cell-based, Homo sapiens; conditions: Homo sapiens, BB30-HNC
Description: SANGER: Inhibition of human BB30-HNC cell growth in a cell viability assay.

ES8 = format: functional, cell-based, Homo sapiens; conditions: Homo sapiens, ES8
Description: SANGER: Inhibition of human ES8 cell growth in a cell viability assay.

BHT-101 = format: functional, cell-based, Homo sapiens; conditions: Homo sapiens, BHT-101
Description: SANGER: Inhibition of human BHT-101 cell growth in a cell viability assay.

KP-N-YN = format: functional, cell-based; conditions: Homo sapiens
Description: SANGER: Inhibition of human KP-N-YN cell growth in a cell viability assay.

CAL-27 = format: functional, cell-based, Homo sapiens; conditions: Homo sapiens, CAL-27
Description: SANGER: Inhibition of human CAL-27 cell growth in a cell viability assay.

C-33-A = format: functional, cell-based, Homo sapiens; conditions: Homo sapiens, C-33-A
Description: SANGER: Inhibition of human C-33-A cell growth in a cell viability assay.

NOMO-1 = format: functional, cell-based; conditions: Homo sapiens
Description: SANGER: Inhibition of human NOMO-1 cell growth in a cell viability assay.

MZ7-mel = format: functional, cell-based, Homo sapiens; conditions: Homo sapiens, MZ7-mel
Description: SANGER: Inhibition of human MZ7-mel cell growth in a cell viability assay.

OCI-AML2 = format: functional, cell-based; conditions: Homo sapiens
Description: SANGER: Inhibition of human OCI-AML2 cell growth in a cell viability assay.

UMUC3 = format: functional, cell-based, Homo sapiens; conditions: Homo sapiens, UMUC3
Description: SANGER: Inhibition of human UM-UC-3 cell growth in a cell viability assay.

KURAMOCHI = format: functional, cell-based; conditions: Homo sapiens
Description: SANGER: Inhibition of human KURAMOCHI cell growth in a cell viability assay.

EW-16 = format: functional, cell-based, Homo sapiens; conditions: Homo sapiens, EW-16
Description: SANGER: Inhibition of human EW-16 cell growth in a cell viability assay.

NB6 = format: functional, cell-based, Homo sapiens; conditions: Homo sapiens, NB6
Description: SANGER: Inhibition of human NB6 cell growth in a cell viability assay.

L-363 = format: functional, cell-based; conditions: Homo sapiens
Description: SANGER: Inhibition of human L-363 cell growth in a cell viability assay.

SBC-1 = format: functional, cell-based; conditions: Homo sapiens
Description: SANGER: Inhibition of human SBC-1 cell growth in a cell viability assay.

EKVX = format: functional, cell-based, Homo sapiens; conditions: Homo sapiens, EKVX
Description: SANGER: Inhibition of human EKVX cell growth in a cell viability assay.

SF-295 = format: functional, cell-based, Homo sapiens; conditions: Homo sapiens, SF-295; read-out: IC50
Description: SANGER: Inhibition of human SF295 cell growth in a cell viability assay.

HCC2218 = format: functional, cell-based; conditions: Homo sapiens
Description: SANGER: Inhibition of human HCC2218 cell growth in a cell viability assay.

IST-MES1 = format: functional, cell-based, Homo sapiens; conditions: Homo sapiens, IST-MES1
Description: SANGER: Inhibition of human IST-MES1 cell growth in a cell viability assay.

SW837 = format: functional, cell-based, Homo sapiens; conditions: Homo sapiens, SW837
Description: SANGER: Inhibition of human SW837 cell growth in a cell viability assay.

TE-9 = format: functional, cell-based, Homo sapiens; conditions: Homo sapiens, TE-9
Description: SANGER: Inhibition of human TE-9 cell growth in a cell viability assay.

SK-MEL-2 = format: functional, cell-based, Homo sapiens; conditions: Homo sapiens, SK-MEL-2
Description: SANGER: Inhibition of human SK-MEL-2 cell growth in a cell viability assay.

Becker = format: functional, cell-based, Homo sapiens; conditions: Homo sapiens, Becker
Description: SANGER: Inhibition of human Becker cell growth in a cell viability assay.

RXF 393 = format: functional, cell-based; conditions: Homo sapiens
Description: SANGER: Inhibition of human RXF393 cell growth in a cell viability assay.

NB14 = format: functional, cell-based; conditions: Homo sapiens
Description: SANGER: Inhibition of human NB14 cell growth in a cell viability assay.

769-P = format: functional, cell-based, Homo sapiens; conditions: Homo sapiens, 769-P
Description: SANGER: Inhibition of human 769-P cell growth in a cell viability assay.

RD = format: functional, cell-based, Homo sapiens; conditions: Homo sapiens, RD
Description: SANGER: Inhibition of human RD cell growth in a cell viability assay.

HCE-T = format: functional, cell-based, Homo sapiens; conditions: Homo sapiens, HCE-T
Description: SANGER: Inhibition of human HCE-T cell growth in a cell viability assay.

GAK = format: functional, cell-based, Homo sapiens; conditions: Homo sapiens, GAK
Description: SANGER: Inhibition of human GAK cell growth in a cell viability assay.

LB1047-RCC = format: functional, cell-based, Homo sapiens; conditions: Homo sapiens, LB1047-RCC
Description: SANGER: Inhibition of human LB1047-RCC cell growth in a cell viability assay.

SKG-IIIa = format: functional, cell-based, Homo sapiens; conditions: Homo sapiens, SKG-IIIa
Description: SANGER: Inhibition of human SKG-IIIa cell growth in a cell viability assay.

COLO-741 = format: functional, cell-based, Homo sapiens; conditions: Homo sapiens, COLO-741
Description: SANGER: Inhibition of human COLO-741 cell growth in a cell viability assay.

8305C = format: functional, cell-based, Homo sapiens; conditions: Homo sapiens, 8305C
Description: SANGER: Inhibition of human 8305C cell growth in a cell viability assay.

NCI-H2052 = format: functional, cell-based, Homo sapiens; conditions: Homo sapiens, NCI-H2052
Description: SANGER: Inhibition of human NCI-H2052 cell growth in a cell viability assay.

LK-2 = format: functional, cell-based, Homo sapiens; conditions: Homo sapiens, LK-2
Description: SANGER: Inhibition of human LK-2 cell growth in a cell viability assay.

786-0 = format: functional, cell-based, Homo sapiens; conditions: Homo sapiens
Description: SANGER: Inhibition of human 786-0 cell growth in a cell viability assay.

NCI-H28 = format: functional, cell-based, Homo sapiens; conditions: Homo sapiens, NCI-H28
Description: SANGER: Inhibition of human NCI-H28 cell growth in a cell viability assay.

GI-ME-N = format: functional, cell-based, Homo sapiens; conditions: Homo sapiens, GI-ME-N
Description: SANGER: Inhibition of human GI-ME-N cell growth in a cell viability assay.

A2780 = format: functional, cell-based, Homo sapiens; conditions: Homo sapiens, A2780
Description: SANGER: Inhibition of human A2780 cell growth in a cell viability assay.

RPMI-8226 = format: functional, cell-based; conditions: Homo sapiens
Description: SANGER: Inhibition of human RPMI-8226 cell growth in a cell viability assay.

GMS-10 = format: functional, cell-based, Homo sapiens; conditions: Homo sapiens, GMS-10
Description: SANGER: Inhibition of human GMS-10 cell growth in a cell viability assay.

TE-10 = format: functional, cell-based, Homo sapiens; conditions: Homo sapiens, TE-10
Description: SANGER: Inhibition of human TE-10 cell growth in a cell viability assay.

Calu-3 = format: functional, cell-based, Homo sapiens; conditions: Homo sapiens, Calu-3
Description: SANGER: Inhibition of human Calu-3 cell growth in a cell viability assay.

HCC38 = format: functional, cell-based, Homo sapiens; conditions: Homo sapiens, HCC38
Description: SANGER: Inhibition of human HCC38 cell growth in a cell viability assay.

KARPAS-299 = format: functional, cell-based; conditions: Homo sapiens
Description: SANGER: Inhibition of human KARPAS-299 cell growth in a cell viability assay.

HuP-T3 = format: functional, cell-based, Homo sapiens; conditions: Homo sapiens, HuP-T3
Description: SANGER: Inhibition of human HuP-T3 cell growth in a cell viability assay.

## COc1cc(F)c(F)c(Nc2ccc(I)cc2F)c1NS(=O)(=O)C1(CC(O)CO)CC1 (configuration not stated)
COLO-829
  IC50: 1.73 µM
PC-3
  IC50: > 5 µM
OVCAR-5
  IC50: 0.234 µM
HD-MY-Z
  IC50: 0.886 µM
NCI-N87
  IC50: > 5 µM
BB30-HNC
  IC50: 1.58 µM
ES8
  IC50: > 5 µM
BHT-101
  IC50: 0.106 µM
KP-N-YN
  IC50: > 5 µM
CAL-27
  IC50: > 5 µM
C-33-A
  IC50: > 5 µM
NOMO-1
  IC50: 0.137 µM
MZ7-mel
  IC50: 0.375 µM
OCI-AML2
  IC50: > 5 µM
UMUC3
  IC50: > 5 µM
KURAMOCHI
  IC50: > 5 µM
EW-16
  IC50: > 5 µM
NB6
  IC50: > 5 µM
L-363
  IC50: > 5 µM
SBC-1
  IC50: > 5 µM
EKVX
  IC50: > 5 µM
SF-295
  IC50: > 5 µM
HCC2218
  IC50: > 5 µM
IST-MES1
  IC50: > 5 µM
SW837
  IC50: > 5 µM
TE-9
  IC50: > 5 µM
SK-MEL-2
  IC50: 0.101 µM
Becker
  IC50: > 5 µM
RXF 393
  IC50: 1.45 µM
NB14
  IC50: > 5 µM
769-P
  IC50: > 5 µM
RD
  IC50: 3.28 µM
HCE-T
  IC50: > 5 µM
GAK
  IC50: 0.565 µM
LB1047-RCC
  IC50: 1.09 µM
SKG-IIIa
  IC50: > 5 µM
COLO-741
  IC50: 0.915 µM
8305C
  IC50: 1.29 µM
NCI-H2052
  IC50: > 5 µM
LK-2
  IC50: > 5 µM
786-0
  IC50: 2.37 µM
NCI-H28
  IC50: > 5 µM
GI-ME-N
  IC50: 1.58 µM
A2780
  IC50: > 5 µM
RPMI-8226
  IC50: 4.51 µM
GMS-10
  IC50: 3.8 µM
TE-10
  IC50: > 5 µM
Calu-3
  IC50: 4.9 µM
HCC38
  IC50: > 5 µM
KARPAS-299
  IC50: > 5 µM
HuP-T3
  IC50: > 5 µM

## O=C1N=C(NCc2cccs2)S/C1=C\c1ccc2ncccc2c1
COLO-829
  IC50: > 5 µM
PC-3
  IC50: > 5 µM
OVCAR-5
  IC50: > 5 µM
HD-MY-Z
  IC50: > 5 µM
NCI-N87
  IC50: > 5 µM
BB30-HNC
  IC50: > 5 µM
ES8
  IC50: > 5 µM
BHT-101
  IC50: > 5 µM
KP-N-YN
  IC50: > 5 µM
CAL-27
  IC50: > 5 µM
C-33-A
  IC50: > 5 µM
NOMO-1
  IC50: > 5 µM
MZ7-mel
  IC50: > 5 µM
OCI-AML2
  IC50: > 5 µM
UMUC3
  IC50: 2.74 µM
KURAMOCHI
  IC50: > 5 µM
EW-16
  IC50: > 5 µM
NB6
  IC50: > 5 µM
L-363
  IC50: > 5 µM
SBC-1
  IC50: > 5 µM
EKVX
  IC50: > 5 µM
SF-295
  IC50: > 5 µM
HCC2218
  IC50: > 5 µM
IST-MES1
  IC50: > 5 µM
SW837
  IC50: > 5 µM
TE-9
  IC50: > 5 µM
SK-MEL-2
  IC50: > 5 µM
Becker
  IC50: > 5 µM
RXF 393
  IC50: > 5 µM
NB14
  IC50: > 5 µM
769-P
  IC50: > 5 µM
RD
  IC50: > 5 µM
HCE-T
  IC50: > 5 µM
GAK
  IC50: > 5 µM
LB1047-RCC
  IC50: 3.24 µM
SKG-IIIa
  IC50: > 5 µM
COLO-741
  IC50: > 5 µM
8305C
  IC50: > 5 µM
NCI-H2052
  IC50: > 5 µM
LK-2
  IC50: > 5 µM
786-0
  IC50: > 5 µM
NCI-H28
  IC50: > 5 µM
GI-ME-N
  IC50: > 5 µM
A2780
  IC50: > 5 µM
RPMI-8226
  IC50: > 5 µM
GMS-10
  IC50: > 5 µM
TE-10
  IC50: > 5 µM
Calu-3
  IC50: > 5 µM
HCC38
  IC50: > 5 µM
KARPAS-299
  IC50: > 5 µM
HuP-T3
  IC50: > 5 µM
